The source of these data is patent publication US9670195B2, “Glycosidase inhibitors and uses thereof” (Alectos Therapeutics Inc., priority 2012, dated 2017).

As a reminder, the pKi is the negative decadic logarithm of the Ki, by convention in mol/L.

pKi: −log10 of the molar value.

human O-GlcNAcase, sequence (O60502 whole entry): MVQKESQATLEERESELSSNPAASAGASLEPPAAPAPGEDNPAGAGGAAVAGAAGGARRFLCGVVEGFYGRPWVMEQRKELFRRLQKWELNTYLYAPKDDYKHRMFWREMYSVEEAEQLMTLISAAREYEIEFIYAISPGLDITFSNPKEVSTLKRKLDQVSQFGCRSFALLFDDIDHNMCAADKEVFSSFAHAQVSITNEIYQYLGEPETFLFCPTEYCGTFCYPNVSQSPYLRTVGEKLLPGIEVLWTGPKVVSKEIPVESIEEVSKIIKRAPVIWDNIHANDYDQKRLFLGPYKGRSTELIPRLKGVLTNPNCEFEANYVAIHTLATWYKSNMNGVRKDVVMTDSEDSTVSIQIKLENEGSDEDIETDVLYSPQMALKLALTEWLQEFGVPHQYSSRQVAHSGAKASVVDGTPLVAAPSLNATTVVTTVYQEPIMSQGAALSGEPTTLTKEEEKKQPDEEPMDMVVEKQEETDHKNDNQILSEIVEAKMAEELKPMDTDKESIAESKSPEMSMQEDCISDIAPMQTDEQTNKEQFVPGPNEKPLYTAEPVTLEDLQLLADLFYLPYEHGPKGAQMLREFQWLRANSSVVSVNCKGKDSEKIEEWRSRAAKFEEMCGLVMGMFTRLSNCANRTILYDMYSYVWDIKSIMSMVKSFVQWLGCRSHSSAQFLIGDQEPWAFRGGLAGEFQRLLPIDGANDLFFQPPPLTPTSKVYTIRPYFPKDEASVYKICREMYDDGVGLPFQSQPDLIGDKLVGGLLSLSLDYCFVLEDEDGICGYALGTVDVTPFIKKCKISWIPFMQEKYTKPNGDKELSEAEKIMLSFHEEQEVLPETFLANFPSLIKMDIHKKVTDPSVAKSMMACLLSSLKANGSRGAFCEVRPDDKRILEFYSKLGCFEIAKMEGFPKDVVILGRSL

The target in the test is human O-GlcNAcase (Homo sapiens (Human), UniProt O60502). Briefly: Assay for determination of KI values for inhibition of O-GlcNAcase activity (fluorescence-based). Format: biochemical. The following applies: purified human O-GlcNAcase, 4-Methylumbelliferyl N-acetyl-β-D-glucosaminide substrate, pH 7.0, Cheng-Prusoff; read-out: Fluorescence-based hOGA Ki. The method, then:
Assay for Determination of KI Values for Inhibition of O-GlcNAcase Activity
Experimental Procedure for Kinetic Analyses:
Enzymatic reactions are carried out in a reaction containing 50 mM NaH2PO4, 100 mM NaCl and 0.1% BSA (pH 7.0) using 2 mM 4-Methylumbelliferyl N-acetyl-β-D-glucosaminide dihydrate (Sigma M2133) dissolved in ddH2O, as a substrate. The amount of purified human O-GlcNAcase enzyme used in the reaction is 0.7 nM. Test compound of varying concentrations is added to the enzyme prior to initiation of the reaction. The reaction is performed at room temperature in a 96-well plate and is initiated with the addition of substrate. The production of fluorescent product is measured every 60 sec for 45 min with a Tecan Infinite M200 plate-reader with excitation at 355 nm and emission detected at […], with 4-Methylumbelliferone (Sigma M1381) used to produce a standard curve. The slope of product production is determined for each concentration of compound tested and plotted, using standard curve fitting algorithms for sigmoidal dose response curves. The values for a four parameter logistic curve fit of the data are determined.
KI values are determined using the Cheng-Prusoff equation; the Km of O-GlcNAcase for substrate is 0.2 mM.
In the case of `CC(=O)N[C@H]1CN[C@@H](CO)[C@@H]1O`, the negative-log Ki (pKi) is 5.23.
The result for `CCCCN1C[C@H](NC(C)=O)[C@@H](O)[C@@H]1CO` reads 4.82.
The result for `CC(=O)N[C@H]1CN(CCCc2ccccc2)[C@@H](CO)[C@@H]1O` [Example 1, N-((3S,4R,5S)-4-hydroxy-5-(hydroxymethyl)-1-(3-phenylpropyl)pyrrolidin-3-yl)acetamide] reads 4.78.
